Data taken from ChEMBL document CHEMBL5614439, “Targeting Thyroid-Stimulating Hormone Receptor: A Perspective on Small-Molecule Modulators and Their Therapeutic Potential” (J Med Chem, 2024).
Each block holds one compound with its values, some of them ahead of it.

How the values were obtained:
Thyrotropin receptor [1] = biological target: T1, Thyrotropin receptor (Homo sapiens, UniProt P16473); experiment: Agonist activity at TSHR (unknown origin) stably expressed in HEK293 cells assessed as intracellular cAMP accumulation incubated for 1 hr; format: functional, cell-based
[2] = biological target: Lutropin-choriogonadotropic hormone receptor (Homo sapiens, UniProt P22888); experiment: Agonist activity at LHCGR (unknown origin); format: functional
[3] = biological target: T2, Follicle-stimulating hormone receptor (Homo sapiens, UniProt P23945); experiment: Agonist activity at FSHR (unknown origin); format: functional
T2 sequence (P23945 whole entry): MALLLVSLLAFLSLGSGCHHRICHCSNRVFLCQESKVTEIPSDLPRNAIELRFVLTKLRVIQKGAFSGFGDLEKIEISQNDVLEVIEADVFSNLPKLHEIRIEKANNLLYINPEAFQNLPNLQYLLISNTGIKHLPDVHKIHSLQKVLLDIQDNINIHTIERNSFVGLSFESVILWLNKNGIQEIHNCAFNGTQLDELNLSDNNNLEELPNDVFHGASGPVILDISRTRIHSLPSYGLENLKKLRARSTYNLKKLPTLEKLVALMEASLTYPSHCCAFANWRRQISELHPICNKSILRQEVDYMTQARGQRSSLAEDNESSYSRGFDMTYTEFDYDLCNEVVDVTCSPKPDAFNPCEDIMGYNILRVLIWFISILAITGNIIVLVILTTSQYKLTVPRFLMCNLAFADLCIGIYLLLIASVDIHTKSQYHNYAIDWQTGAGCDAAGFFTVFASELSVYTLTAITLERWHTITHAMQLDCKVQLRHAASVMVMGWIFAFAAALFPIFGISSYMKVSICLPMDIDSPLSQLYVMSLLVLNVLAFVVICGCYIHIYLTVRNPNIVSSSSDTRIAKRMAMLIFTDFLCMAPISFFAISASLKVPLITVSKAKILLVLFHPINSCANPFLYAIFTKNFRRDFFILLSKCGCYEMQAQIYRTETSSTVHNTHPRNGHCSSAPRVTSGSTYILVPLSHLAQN

Thyrotropin receptor [4] = biological target: T1, Thyrotropin receptor; experiment: Inverse agonist activity at TSH receptor (unknown origin) stably expressed in HEK293 cells assessed as reduction in TSH-induced cAMP production incubated for 40 mins by ELISA analysis; format: functional, cell-based
Thyrotropin receptor [5] = biological target: T1, Thyrotropin receptor; experiment: Agonist activity at N-terminal HA-tagged TSHR (unknown origin) stably expressed in CHO cells assessed as change in intracellular […] level incubated for 60 mins by CRE-driven luciferase reporter based microplate reader; format: functional, cell-based
Thyrotropin receptor [6] = biological target: T1, Thyrotropin receptor; experiment: Agonist activity at TSHR (unknown origin) expressed in CHO cells; format: functional, cell-based
Thyrotropin receptor [7] = biological target: T1, Thyrotropin receptor; experiment: Agonist activity at TSHR (unknown origin); format: functional
Thyrotropin receptor [8] = biological target: T1, Thyrotropin receptor; experiment: Agonist activity at N-terminal HA-tagged TSHR (unknown origin) assessed as intracellular calcium level measured for 60 mins by HTS assay; format: functional, cell-based
[9] = Inhibition of b-TSH-induced C-terminal GFP-tagged mouse TSHR activation expressed in HEK293 cells by cAMP assay; format: cell-based

T1 sequence (P16473 whole entry): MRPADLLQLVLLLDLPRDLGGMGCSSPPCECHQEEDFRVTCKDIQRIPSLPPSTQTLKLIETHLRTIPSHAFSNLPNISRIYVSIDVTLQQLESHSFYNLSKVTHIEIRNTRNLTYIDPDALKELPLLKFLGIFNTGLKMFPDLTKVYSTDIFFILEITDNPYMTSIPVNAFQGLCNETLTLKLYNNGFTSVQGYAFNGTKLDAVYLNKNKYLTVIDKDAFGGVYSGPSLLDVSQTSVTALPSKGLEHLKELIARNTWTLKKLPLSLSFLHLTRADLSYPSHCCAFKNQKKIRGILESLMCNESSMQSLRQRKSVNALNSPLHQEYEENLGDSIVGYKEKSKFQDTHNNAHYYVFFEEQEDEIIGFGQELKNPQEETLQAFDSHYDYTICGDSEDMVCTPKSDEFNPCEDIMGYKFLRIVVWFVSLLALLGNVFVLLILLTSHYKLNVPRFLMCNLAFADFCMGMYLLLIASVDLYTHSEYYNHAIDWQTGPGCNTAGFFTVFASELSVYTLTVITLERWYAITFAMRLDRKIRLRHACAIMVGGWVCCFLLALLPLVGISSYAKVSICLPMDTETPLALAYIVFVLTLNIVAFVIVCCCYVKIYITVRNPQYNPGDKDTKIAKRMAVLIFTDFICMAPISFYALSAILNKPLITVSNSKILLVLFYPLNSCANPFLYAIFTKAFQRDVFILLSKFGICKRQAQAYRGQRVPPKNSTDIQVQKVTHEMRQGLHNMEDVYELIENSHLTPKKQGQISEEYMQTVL
Lutropin-choriogonadotropic hormone receptor, sequence (P22888 whole entry): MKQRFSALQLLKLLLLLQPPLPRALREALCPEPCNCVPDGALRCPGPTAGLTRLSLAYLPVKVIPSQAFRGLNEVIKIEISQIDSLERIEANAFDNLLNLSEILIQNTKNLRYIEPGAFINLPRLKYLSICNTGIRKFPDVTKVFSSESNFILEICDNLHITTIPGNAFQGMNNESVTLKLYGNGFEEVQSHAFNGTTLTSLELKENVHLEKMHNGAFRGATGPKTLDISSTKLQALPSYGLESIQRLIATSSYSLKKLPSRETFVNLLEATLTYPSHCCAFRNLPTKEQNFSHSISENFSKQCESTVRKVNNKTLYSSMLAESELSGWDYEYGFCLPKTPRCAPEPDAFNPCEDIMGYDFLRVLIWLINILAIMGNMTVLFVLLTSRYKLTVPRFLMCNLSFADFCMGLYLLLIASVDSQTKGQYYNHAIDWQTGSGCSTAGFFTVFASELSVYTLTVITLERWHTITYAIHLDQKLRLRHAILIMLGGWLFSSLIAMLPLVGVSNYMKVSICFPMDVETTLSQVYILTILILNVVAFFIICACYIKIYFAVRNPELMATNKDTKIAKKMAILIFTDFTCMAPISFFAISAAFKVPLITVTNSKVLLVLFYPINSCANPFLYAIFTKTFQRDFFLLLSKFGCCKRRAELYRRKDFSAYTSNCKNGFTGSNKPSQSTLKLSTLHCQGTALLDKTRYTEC

Structure (SMILES): COc1ccc(C2Nc3ccccc3C(=O)N2Cc2ccco2)cc1COc1ccc(NC(C)=O)cc1 (stereo unspecified)
- EC50 (Thyrotropin receptor [1]): 600 nM

Structure (SMILES): COc1ccc(C2Nc3cccc(O)c3C(=O)N2Cc2ccccc2)cc1COc1ccc(NC(C)=O)cc1 (stereo unspecified)
- EC50 (Thyrotropin receptor [1]): 40 nM

Structure (SMILES): COc1ccc(C2Nc3ccccc3C(=O)N2Cc2ccco2)cc1COc1c(C)cccc1C (stereo unspecified)
- EC50 [2]: 0.48 µM
- IC50 [3]: 4.6 µM

Structure (SMILES): COc1cccc(-c2nc(SC)nc3sc(C(=O)NC(C)(C)C)c(N)c23)c1
- EC50 [2]: 0.35 µM

Structure (SMILES): COc1ccc(C2Nc3ccccc3C(=O)N2Cc2cccnc2)cc1COc1c(C)cccc1C (stereo unspecified)
- IC50 (Thyrotropin receptor [4]): 3500 nM
- EC50 [2]: > 30 µM
- IC50 [3]: > 30 µM

Structure (SMILES): COC/C=C/c1ccc(-c2nc(SC)nc3sc(C(=O)NC(C)(C)C)c(N)c23)cc1
- EC50 (Thyrotropin receptor [6]): 4.2 nM

Structure (SMILES): COc1ccc(C2Nc3ccccc3C(=O)N2Cc2ccco2)cc1COc1c(C)cc(NC(C)=O)cc1C (stereo unspecified)
- IC50 (Thyrotropin receptor [4]): 2300 nM
- EC50 [2]: > 30 µM
- IC50 [3]: > 30 µM

Other lines, results leading:

- EC50 [2]: > 10 µM
- EC50 (Thyrotropin receptor [5]): 130 nM
Structure (SMILES): CC(C)N(C(=O)c1cc(-c2ccccc2)nc2ccccc12)C(C)C

- EC50 (Thyrotropin receptor [6]): 8.3 nM
- EC50 (Thyrotropin receptor [7]): 8.3 nM
Structure (SMILES): CCCc1ccc(-c2cc(C(=O)NCc3ccncc3)c3ccccc3n2)cc1

- EC50 [2]: > 10 µM
- EC50 (Thyrotropin receptor [5]): 540 nM
Structure (SMILES): CC1=C(C(=O)OCc2ccccc2)C(c2ccc(C(F)(F)F)cc2)NC(=O)N1 (stereo unspecified)

- EC50 (Thyrotropin receptor [8]): 12.3 µM
Structure (SMILES): CNc1nc(-c2c(-c3ccccc3)[nH]c3ccccc23)cs1

- IC50 [9]: 40 µM
Structure (SMILES): O=C1[C@@H]2[C@H]3C[C@H]([C@@H]4Sc5[nH]c(=O)sc5[C@@H](c5ccccc5)[C@H]34)[C@@H]2C(=O)N1c1ccccc1

- EC50 (Thyrotropin receptor [7]): 11.6 nM
Structure (SMILES): CC(c1ccccc1)c1nc(N2CCNCC2)nc2ccccc12 (stereo unspecified)
